Assay results: ChEMBL document CHEMBL5316313, “Discovery of Novel 3-Phenylpiperidine Derivatives Targeting the β-Catenin/B-Cell Lymphoma 9 Interaction as a Single Agent and in Combination with the Anti-PD-1 Antibody for the Treatment of Colorectal Cancer” (J Med Chem, 2023)
Activity calls are given as the source filed them. No cut-off for these calls is given here.

What was measured:
CT26 [1] = experiment: Induction of apoptosis in Wnt-dependent mouse CT26 cells assessed as viable cells at 20 uM incubated for 24 hrs by Annexin V-Alexa Fluor 647/PI staining based flow cytomtery (Rvb=70.7%); type: functional; settings: read-out: Activity
HEK293 [2] = experiment: Induction of apoptosis in Wnt-independent human HEK293 cells assessed as late apoptotic cells at 10 uM incubated for 24 hrs by Annexin V-Alexa Fluor 647/PI staining based flow cytomtery (Rvb=10.5%); type: functional
HEK293 [3] = experiment: Induction of apoptosis in Wnt-independent human HEK293 cells assessed as early apoptotic cells at 10 uM incubated for 24 hrs by Annexin V-Alexa Fluor 647/PI staining based flow cytomtery (Rvb=17.4%); type: functional
CT26 [4] = experiment: Synergistic antitumor activity in mouse CT26 cells xenografted in BALB/c mouse assessed as decrease in Foxp3 expression in Treg tumor cells at 30 mg/kg, ip QD in presence of anti-PD-1 antibody cotreatment at 10 mg/kg,ip BIW by qRT-PCR analysis; type: functional, organism-based
CT26 [5] = experiment: Antiproliferative activity against Wnt-dependent mouse CT26 cells assessed as cell growth inhibition incubated for 48 hrs by CellTiter-Glo assay; type: functional, cell-based
CT26 [6] = experiment: Synergistic antitumor activity in mouse CT26 cells xenografted in BALB/c mouse assessed as increase in Cd8 mRNA expression level in tumor at 30 mg/kg, ip QD in presence of anti-PD-1 antibody cotreatment at 10 mg/kg,ip BIW by qRT-PCR analysis; type: functional, organism-based
[7] = Toxicity in BALB/c mouse xenografted with mouse CT26 cells assessed as pathological changes in kidney at 30 mg/kg, ip QD by hematoxylin and eosin staining based microscopic analysis; type: organism-based; settings: in vivo
CT26 [8] = experiment: Synergistic antitumor activity in mouse CT26 cells xenografted in BALB/c mouse assessed as increase in IFNG mRNA expression level in tumor at 30 mg/kg, ip QD in presence of anti-PD-1 antibody cotreatment at 10 mg/kg,ip BIW by qRT-PCR analysis; type: functional, organism-based
RKO = experiment: Antiproliferative activity against Wnt-independent human RKO cells assessed as cell growth inhibition at 40 uM incubated for 48 hrs by CellTiter-Glo assay; type: functional, cell-based
CT26 [9] = experiment: Induction of apoptosis in Wnt-dependent mouse CT26 cells assessed as necrotic cells at 20 uM incubated for 24 hrs by Annexin V-Alexa Fluor 647/PI staining based flow cytomtery (Rvb=1.04%); type: functional
[10] = Toxicity in BALB/c mouse xenografted with mouse CT26 cells assessed as body weight loss at 30 mg/kg, ip QD and measured upto 9 days; type: organism-based; settings: in vivo, 216 h, time < 9 day
[11] = Microsomal stability in mouse liver microsomes assessed as intrinsic clearance at […] and measured upto 60 mins by LC-MS/MS analysis; type: ADME, Microsome; settings: read-out: CLH
[12] = Tmax in Sprague-Dawley rat at 21 mg/kg, ip and measured upto 24 hrs by LC-MS analysis; type: ADME, organism-based; settings: in vivo
HEK293 [13] = experiment: Induction of apoptosis in Wnt-independent human HEK293 cells assessed as late apoptotic cells at 20 uM incubated for 24 hrs by Annexin V-Alexa Fluor 647/PI staining based flow cytomtery (Rvb=10.5%); type: functional
CT26 [14] = experiment: Induction of apoptosis in Wnt-dependent mouse CT26 cells assessed as late apoptotic cells at 10 uM incubated for 24 hrs by Annexin V-Alexa Fluor 647/PI staining based flow cytomtery (Rvb=9.96%); type: functional
[15] = Cmax in Sprague-Dawley rat at 21 mg/kg, ip and measured upto 24 hrs by LC-MS analysis; type: ADME, organism-based; set-up: dose 21 mg/kg, time < 24 hrs, route ip; settings: in vivo

Compound CC(C)c1ccc(-c2cccc(S(=O)(=O)N3CCCC(c4cccc(OC(C)(C)C(=O)NS(=O)(=O)c5ccc(C(F)(F)F)cc5)c4)C3)c2)cc1 (stereo unspecified) has a viability at 20 µM (CT26 [1]) of 16%, an Activity (HEK293 [2]) of 14.9% and an Activity (HEK293 [3]) of 12.1%. For the same compound, the Activity (CT26 [4]) was “Active”, the Activity (CT26 [5]) was “Active” and the Activity (CT26 [6]) was “Active”. The Activity [7] was “Non-Toxic”, the Activity (CT26 [8]) was “Active” and the Activity (RKO) was “inactive”. The Activity (CT26 [9]) was 1.42%, the Activity [10] was “Non-Toxic” and the microsomal CLint [11] was 66.2 µL/min/mg. It also gave a Tmax [12] of 30 min, an Activity (HEK293 [13]) of 16.6% and an Activity (CT26 [14]) of 30.2%. The Cmax [15] was 6960 ng/mL.
